Measurements taken from the NIST ThermoML archive (doi:10.1021/je060271a).
“And” between values parts separate entries of the source, which are not always exact repeats. Equal entries are not always repeated. Numbers after ± are expanded uncertainties.

Settings: Liquid, Vibrating tube method

CCCCCCCC(=O)OCC(COC(=O)CCCCCCC)(COC(=O)CCCCCCC)COC(=O)CCCCCCC [pentaerythritol tetraoctanoate]
Settings	mass density
303.15 K, 32860 kPa	974.3 ± 1.2 kg/m3
303.15 K, 32891 kPa	974.3 ± 1.2 kg/m3
303.15 K, 32922 kPa	974.2 ± 1.2 kg/m3
303.15 K, 32960 kPa	974.3 ± 1.2 kg/m3
303.15 K, 32992 kPa	974.4 ± 1.2 kg/m3
303.15 K, 33022 kPa	974.3 ± 1.2 kg/m3
303.15 K, 33060 kPa	974.4 ± 1.2 kg/m3
303.15 K, 33092 kPa	974.4 ± 1.2 kg/m3
303.15 K, 33129 kPa	974.4 ± 1.2 kg/m3
303.15 K, 33161 kPa	974.4 ± 1.2 kg/m3
303.15 K, 33192 kPa	974.4 ± 1.2 kg/m3
303.15 K, 33231 kPa	974.5 ± 1.2 kg/m3
303.15 K, 33263 kPa	974.4 ± 1.2 kg/m3
303.15 K, 33295 kPa	974.5 ± 1.2 kg/m3
303.15 K, 33327 kPa	974.5 ± 1.2 kg/m3
303.15 K, 33366 kPa	974.6 ± 1.2 kg/m3
303.15 K, 33398 kPa	974.6 ± 1.2 kg/m3
303.15 K, 33437 kPa	974.6 ± 1.2 kg/m3
303.15 K, 33469 kPa	974.5 ± 1.2 kg/m3
303.15 K, 33502 kPa	974.6 ± 1.2 kg/m3
303.15 K, 33541 kPa	974.8 ± 1.2 kg/m3
303.15 K, 33574 kPa	974.6 ± 1.2 kg/m3
303.15 K, 33607 kPa	974.6 ± 1.2 kg/m3
303.15 K, 33647 kPa	974.7 ± 1.2 kg/m3
303.15 K, 33682 kPa	974.8 ± 1.2 kg/m3
303.15 K, 33716 kPa	974.7 ± 1.2 kg/m3
303.15 K, 33760 kPa	974.6 ± 1.2 kg/m3
303.15 K, 33796 kPa	974.8 ± 1.2 kg/m3
303.15 K, 33832 kPa	974.9 ± 1.2 kg/m3
303.15 K, 33864 kPa	974.9 ± 1.2 kg/m3
303.15 K, 33892 kPa	974.7 ± 1.2 kg/m3
303.15 K, 33915 kPa	974.9 ± 1.2 kg/m3
303.15 K, 33938 kPa	974.8 ± 1.2 kg/m3
303.15 K, 33965 kPa	975 ± 1.2 kg/m3
303.15 K, 33988 kPa	974.9 ± 1.2 kg/m3
303.15 K, 34016 kPa	974.8 ± 1.2 kg/m3
303.15 K, 34039 kPa	974.9 ± 1.2 kg/m3
303.15 K, 34062 kPa	975 ± 1.2 kg/m3
303.15 K, 34092 kPa	974.9 ± 1.2 kg/m3
303.15 K, 34116 kPa	975 ± 1.2 kg/m3
303.15 K, 34141 kPa	974.9 ± 1.2 kg/m3
303.15 K, 34166 kPa	975 ± 1.2 kg/m3
303.15 K, 34196 kPa	974.9 ± 1.2 kg/m3
303.15 K, 34222 kPa	975 ± 1.2 kg/m3
303.15 K, 34255 kPa	975.2 ± 1.2 kg/m3
303.15 K, 34284 kPa	975.1 ± 1.2 kg/m3
303.15 K, 34313 kPa	975 ± 1.2 kg/m3
303.15 K, 34325 kPa	975 ± 1.2 kg/m3
303.15 K, 34326 kPa	975.1 ± 1.2 kg/m3
303.15 K, 34328 kPa	975.1 ± 1.2 kg/m3
303.15 K, 34329 kPa	975.2 ± 1.2 kg/m3
303.15 K, 34330 kPa	975.2 ± 1.2 kg/m3
303.15 K, 34332 kPa	975.2 ± 1.2 kg/m3
303.15 K, 34333 kPa	975.1 ± 1.2 kg/m3 and 975.2 ± 1.2 kg/m3
303.15 K, 34335 kPa	975.1 ± 1.2 kg/m3
303.15 K, 34336 kPa	975 ± 1.2 kg/m3
303.15 K, 34337 kPa	975 ± 1.2 kg/m3
303.15 K, 34339 kPa	975 ± 1.2 kg/m3
303.15 K, 34340 kPa	975 ± 1.2 kg/m3 and 975.1 ± 1.2 kg/m3
303.15 K, 34342 kPa	975 ± 1.2 kg/m3
303.15 K, 34343 kPa	975 ± 1.2 kg/m3
303.15 K, 34349 kPa	975.1 ± 1.2 kg/m3
303.15 K, 34350 kPa	975 ± 1.2 kg/m3
303.15 K, 34361 kPa	975.2 ± 1.2 kg/m3
303.15 K, 34371 kPa	975.2 ± 1.2 kg/m3
303.15 K, 34374 kPa	975 ± 1.2 kg/m3
303.15 K, 34375 kPa	975.2 ± 1.2 kg/m3
303.15 K, 34377 kPa	975.2 ± 1.2 kg/m3
303.16 K, 3295.7 kPa	957.4 ± 1.2 kg/m3
303.16 K, 3309.7 kPa	957.5 ± 1.2 kg/m3
303.16 K, 3323.8 kPa	957.4 ± 1.2 kg/m3
303.16 K, 3335.4 kPa	957.5 ± 1.2 kg/m3
303.16 K, 3349.9 kPa	957.5 ± 1.2 kg/m3
303.16 K, 3364.5 kPa	957.5 ± 1.2 kg/m3
303.16 K, 3376.5 kPa	957.4 ± 1.2 kg/m3
303.16 K, 3390.8 kPa	957.6 ± 1.2 kg/m3
303.16 K, 3405.4 kPa	957.4 ± 1.2 kg/m3
303.16 K, 3418 kPa	957.6 ± 1.2 kg/m3
303.16 K, 3432.9 kPa	957.5 ± 1.2 kg/m3
303.16 K, 3447.8 kPa	957.5 ± 1.2 kg/m3
303.16 K, 3460.5 kPa	957.5 ± 1.2 kg/m3
303.16 K, 3475.7 kPa	957.5 ± 1.2 kg/m3
303.16 K, 3490.8 kPa	957.6 ± 1.2 kg/m3
303.16 K, 3504 kPa	957.5 ± 1.2 kg/m3
303.16 K, 3519.7 kPa	957.6 ± 1.2 kg/m3
303.16 K, 3535.3 kPa	957.7 ± 1.2 kg/m3
303.16 K, 3548.8 kPa	957.5 ± 1.2 kg/m3
303.16 K, 3564.8 kPa	957.5 ± 1.2 kg/m3
303.16 K, 3593.9 kPa	957.6 ± 1.2 kg/m3
303.16 K, 3609.8 kPa	957.6 ± 1.2 kg/m3
303.16 K, 3626.1 kPa	957.6 ± 1.2 kg/m3
303.16 K, 3640.3 kPa	957.7 ± 1.2 kg/m3
303.16 K, 3656.9 kPa	957.6 ± 1.2 kg/m3
303.16 K, 3671 kPa	957.7 ± 1.2 kg/m3
303.16 K, 3688.1 kPa	957.8 ± 1.2 kg/m3
323.14 K, 32674 kPa	960.8 ± 1.2 kg/m3
323.14 K, 32807 kPa	961 ± 1.2 kg/m3
323.15 K, 104.51 kPa	940.7 ± 1.1 kg/m3
323.15 K, 104.52 kPa	940.7 ± 1.1 kg/m3 and 940.6 ± 1.1 kg/m3
323.15 K, 105.05 kPa	940.7 ± 1.1 kg/m3
323.15 K, 105.56 kPa	940.7 ± 1.1 kg/m3
323.15 K, 107.29 kPa	940.7 ± 1.1 kg/m3
323.15 K, 110.42 kPa	940.7 ± 1.1 kg/m3
323.15 K, 119.65 kPa	940.6 ± 1.1 kg/m3
323.15 K, 137.02 kPa	940.6 ± 1.1 kg/m3
323.15 K, 166.4 kPa	940.7 ± 1.1 kg/m3
323.15 K, 245.49 kPa	940.7 ± 1.1 kg/m3
323.15 K, 268.79 kPa	940.8 ± 1.1 kg/m3
323.15 K, 281.82 kPa	940.8 ± 1.1 kg/m3
323.15 K, 299.57 kPa	941 ± 1.1 kg/m3
323.15 K, 315.89 kPa	940.9 ± 1.1 kg/m3
323.15 K, 333.79 kPa	940.8 ± 1.1 kg/m3
323.15 K, 351.71 kPa	940.9 ± 1.1 kg/m3
323.15 K, 362.82 kPa	940.9 ± 1.1 kg/m3
323.15 K, 374.29 kPa	940.8 ± 1.1 kg/m3
323.15 K, 388.88 kPa	941 ± 1.1 kg/m3
323.15 K, 401.56 kPa	941 ± 1.1 kg/m3
323.15 K, 413.39 kPa	941 ± 1.1 kg/m3
323.15 K, 427.29 kPa	940.9 ± 1.1 kg/m3
323.15 K, 439.11 kPa	940.9 ± 1.1 kg/m3
323.15 K, 449.2 kPa	941 ± 1.1 kg/m3
323.15 K, 461 kPa	940.9 ± 1.1 kg/m3
323.15 K, 471.78 kPa	941 ± 1.1 kg/m3
323.15 K, 482.73 kPa	940.9 ± 1.1 kg/m3
323.15 K, 496.63 kPa	940.9 ± 1.1 kg/m3
323.15 K, 509.14 kPa	940.9 ± 1.1 kg/m3
323.15 K, 522.17 kPa	941 ± 1.1 kg/m3
323.15 K, 538.51 kPa	941.1 ± 1.1 kg/m3
323.15 K, 552.59 kPa	941 ± 1.1 kg/m3
323.15 K, 567.71 kPa	940.9 ± 1.1 kg/m3
323.15 K, 586.82 kPa	941 ± 1.1 kg/m3
323.15 K, 621.05 kPa	941 ± 1.1 kg/m3
323.15 K, 643.29 kPa	941.1 ± 1.1 kg/m3
323.15 K, 663.11 kPa	941 ± 1.1 kg/m3
323.15 K, 684.47 kPa	941.1 ± 1.1 kg/m3
323.15 K, 711.74 kPa	941 ± 1.1 kg/m3
323.15 K, 735.9 kPa	941.1 ± 1.1 kg/m3
323.15 K, 761.44 kPa	941.1 ± 1.1 kg/m3
323.15 K, 788.7 kPa	941.2 ± 1.1 kg/m3
323.15 K, 806.43 kPa	941.1 ± 1.1 kg/m3
323.15 K, 824.32 kPa	941.2 ± 1.1 kg/m3
323.15 K, 839.78 kPa	941.2 ± 1.1 kg/m3
323.15 K, 855.59 kPa	941.1 ± 1.1 kg/m3
323.15 K, 972.85 kPa	941.4 ± 1.1 kg/m3
323.15 K, 994.21 kPa	941.3 ± 1.1 kg/m3
323.15 K, 1021.5 kPa	941.4 ± 1.1 kg/m3
323.15 K, 1039.6 kPa	941.3 ± 1.1 kg/m3
323.15 K, 1067.7 kPa	941.3 ± 1.1 kg/m3
